Measured values reported in patent US12349710B2, “Sensory modifiers” (CARGILL, INCORPORATED, priority 2019, dated 2025).

Legend:
[1] = Roundtable sensory panel of at least four experienced individuals, aqueous test samples (Example 1); type: in vivo; parameters: key to Spiky-Rounded: 0—like Reb M/N (spiky); 1—mostly spiky, some rounded; 2—mostly rounded, some spiky; 3—rounded; key to Sweet Linger / Tea/floral/green / Bitter / Typical Reb M/N Attributes (astringency, metallic, powdery, numbing, vapory): 0—none,; 1—trace/faint; 2—slight; 3—moderate; 4—definite; 5—strong; 6—extreme, typical Reb M/N; key to Mouthfeel: 0—water; 1—sucrosey; 2—syrupy; settings: solution in reverse osmosis water
Method: Solutions were prepared which contained either a steviol glycoside component alone, for use as a control sample, or a steviol glycoside component and sensory modifier in a 2:1 molar ratio, which also corresponds to a 2:1 weight ratio. Solutions were prepared by dissolving the steviol glycoside components and sensory modifiers into reverse osmosis water at the indicated concentrations and/or ratios.
Assays were carried out to characterize the sensory attributes of steviol glycoside compositions having various salt fractions of sensory modifier. Sensory attributes of the solutions were tested by a panel of at least four individuals that are experienced in tasting steviol glycoside compositions. The experienced panelists used a roundtable methodology to assess each sweetness attribute. To test each solution, the experienced panelists dispensed approximately 2 mL of each solution into their own mouths by transfer pipet, dispersed the solution by moving their tongues, and recorded a value for the particular sweetness attribute being tested. Between tasting solutions, the panelists were able to cleanse their palates with water. For each sweetness attribute, the panelists agreed on a descriptive scale with relative intensities assigned for each sweetness attribute and then recorded the values for each sweetness attribute against this.
A mixture of monocaffeoylquinic acid and dicaffeoylquinic acid was obtained from yerba mate to provide the sensory modifier in acid form. Separately from the steviol glycoside component, the mixture of monocaffeoylquinic acid and dicaffeoylquinic acid was adjusted with sodium hydroxide or potassium hydroxide to obtain sodium salts or potassium salts (each corresponding to 100% salt form). The resulting samples were freeze-dried to provide sensory modifier (SM) in ready-to-use, powder-form. A series of samples were prepared from the sensory modifier. For each sample, the final concentration of sensory modifiers was 470-500 ppm (wt/wt), including the contribution of salt mass. Steviol Glycoside Component Examples A and B were used alone as a control sample and also used as the starting point for the sensory modified samples.
For each sample, the flavor profile was compared to the steviol glycoside solution alone as well as to the sample with differing salt composition.

[2] = Perceived sweetness intensity (SEV, sucrose equivalent value) of aqueous test samples; type: in vivo; settings: sucrose equivalent value (SEV 1 = 1% sucrose solution); solution in reverse osmosis water
Source text: In some aspects, minor steviol glycosides can also have specific sensory attributes related to sweetness intensity. Perceived sweetness intensity can be reported as SEV (sucrose equivalent value) with increasing sweetness intensity corresponding to higher SEV. A SEV of 1 corresponds to a 1% sucrose solution, a SEV of 2 corresponds to a 2% sucrose solution, and so on. While perception of sweetness intensity generally increases as the concentration of the minor steviol glycoside increases, the perceived sweetness intensity can reach a plateau despite increasing amounts of the minor steviol glycoside. […]
As a further example, sweetness intensity of the solutions can be tested by a panel of at least four individuals that are experienced in tasting steviol glycoside compositions. […] The panelists also can taste the standard range of 1%, 2%, 3%, 4%, 5%, 6%, 7%, 8%, 9%, 10%, 11%, 12%, 13%, and 14% sucrose solutions ad libitum between tasting test solutions to ensure an accurate match to their recorded SEV values with the standard sucrose solutions. […]
A mixture of monocaffeoylquinic acid and dicaffeoylquinic acid was obtained from yerba mate to provide the sensory modifier in acid form. […] The resulting samples were freeze-dried to provide sensory modifier (SM) in ready-to-use, powder-form. […]

[3] = cited from earlier work

C=C1C[C@@]23CC[C@H]4[C@@](C)(CCC[C@@]4(C)C(=O)O[C@@H]4O[C@H](CO)[C@@H](O)[C@H](O[C@@H]5O[C@H](CO)[C@@H](O)[C@H](O)[C@H]5O)[C@H]4O[C@@H]4O[C@H](CO)[C@@H](O)[C@H](O)[C@H]4O)[C@@H]2CC[C@]1(O[C@@H]1O[C@H](CO)[C@@H](O)[C@H](O[C@@H]2O[C@H](CO)[C@@H](O)[C@H](O)[C@H]2O)[C@H]1O[C@@H]1O[C@H](CO)[C@@H](O)[C@H](O)[C@H]1O)C3 [Component Example A, rebaudioside M]
Mouthfeel ([1]; panel score 0-2): 0 | Spiky-Rounded ([1]; panel score 0-3): 0 | Tea/floral/green ([1]; panel score 0-5): 0 | Bitter ([1]; panel score 0-6): 5 | Sweet Linger ([1]; panel score 0-6): 4 | Typical Reb M/N Attributes (astringency, metallic, powdery, numbing, vapory) ([1]; panel score 0-6): 4 | SEV [2]: 9.5

O=C(O)[C@]1(O)C[C@@H](O)[C@@H](O)[C@H](O)C1 [quinic acid, D-(−)-quinic acid]
pKa [3]: around 3.46
